For 24 compounds, IC50 results are on record in patent US11827627B2, “N-(hydroxyalkyl (hetero)aryl) tetrahydrofuran carboxamides as modulators of sodium channels” (VERTEX PHARMACEUTICALS INCORPORATED, priority 2021, dated 2023).

The assay concerns the target human NaV 1.8 (Homo sapiens, UniProt Q9Y5Y9). Description: E-VIPR assay detecting and measuring NaV inhibition properties. Type of assay: cell-based. To be noted: HEK cells expressing a truncated form of human NaV 1.8; electrical stimulation, membrane potential FRET dyes. The procedure, abridged:
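HEK cells expressing truncated full-activity NaV 1.8, co-transduced with KIR2.1 BacMam, seeded 16-20 h before assay. Electrical stimulation with FRET membrane-potential dyes (CC2-DMPE/DiSBAC6(3)) in HEPES-buffered bath solutions; 25% human serum final.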

Each structure is given as a SMILES string.

Chain of human NaV 1.8 (Q9Y5Y9 126-1722 limits assumed): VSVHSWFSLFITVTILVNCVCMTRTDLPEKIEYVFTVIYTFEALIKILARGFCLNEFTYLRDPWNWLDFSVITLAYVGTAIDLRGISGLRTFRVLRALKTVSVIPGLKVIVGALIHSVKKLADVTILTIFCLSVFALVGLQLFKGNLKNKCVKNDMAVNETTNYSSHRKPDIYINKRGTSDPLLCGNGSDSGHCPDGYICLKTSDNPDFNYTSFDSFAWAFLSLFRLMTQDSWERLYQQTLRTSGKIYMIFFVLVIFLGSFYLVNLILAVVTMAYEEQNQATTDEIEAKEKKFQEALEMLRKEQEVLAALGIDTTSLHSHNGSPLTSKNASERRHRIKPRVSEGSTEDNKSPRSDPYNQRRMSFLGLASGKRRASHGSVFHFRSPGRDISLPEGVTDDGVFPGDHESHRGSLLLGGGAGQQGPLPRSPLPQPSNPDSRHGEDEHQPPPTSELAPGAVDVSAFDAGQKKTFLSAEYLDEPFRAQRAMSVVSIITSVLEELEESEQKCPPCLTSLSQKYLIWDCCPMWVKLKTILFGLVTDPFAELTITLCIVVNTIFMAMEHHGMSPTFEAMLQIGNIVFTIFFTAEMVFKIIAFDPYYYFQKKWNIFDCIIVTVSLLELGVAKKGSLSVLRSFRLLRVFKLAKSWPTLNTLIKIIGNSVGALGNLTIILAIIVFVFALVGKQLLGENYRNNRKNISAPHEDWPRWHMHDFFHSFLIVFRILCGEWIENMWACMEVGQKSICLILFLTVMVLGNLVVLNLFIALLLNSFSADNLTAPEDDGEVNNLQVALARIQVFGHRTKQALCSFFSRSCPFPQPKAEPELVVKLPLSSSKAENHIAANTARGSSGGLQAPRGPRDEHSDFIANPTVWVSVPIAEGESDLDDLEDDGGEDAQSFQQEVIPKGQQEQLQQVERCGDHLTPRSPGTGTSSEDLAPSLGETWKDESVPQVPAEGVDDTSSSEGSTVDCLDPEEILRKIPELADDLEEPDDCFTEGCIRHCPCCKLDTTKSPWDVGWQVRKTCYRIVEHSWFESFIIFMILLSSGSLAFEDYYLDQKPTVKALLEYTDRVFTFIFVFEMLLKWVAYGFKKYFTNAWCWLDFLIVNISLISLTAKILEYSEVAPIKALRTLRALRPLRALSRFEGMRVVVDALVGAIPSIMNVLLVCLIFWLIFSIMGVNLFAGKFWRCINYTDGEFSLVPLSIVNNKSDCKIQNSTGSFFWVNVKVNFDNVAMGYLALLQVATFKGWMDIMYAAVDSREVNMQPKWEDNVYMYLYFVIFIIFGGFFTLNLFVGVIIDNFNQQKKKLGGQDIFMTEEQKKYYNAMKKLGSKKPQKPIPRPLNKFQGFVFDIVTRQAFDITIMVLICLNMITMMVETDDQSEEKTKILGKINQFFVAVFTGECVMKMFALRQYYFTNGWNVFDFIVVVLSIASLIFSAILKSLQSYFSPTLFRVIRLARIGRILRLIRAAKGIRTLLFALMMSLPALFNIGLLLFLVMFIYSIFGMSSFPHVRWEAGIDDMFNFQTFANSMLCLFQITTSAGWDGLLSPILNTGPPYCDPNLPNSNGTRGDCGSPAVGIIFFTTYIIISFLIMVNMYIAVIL

Take `COc1c(C2C(C(=O)Nc3ccc(CO)nc3)OC(C)(C(F)(F)F)C2C)cccc1C(F)(F)F` (single isomer, unassigned) [Compound 81]: the IC50 (as a rule, the concentration that inhibits the measured activity by half) was at least 1000 nM.

For `COc1c(C2C(C(=O)Nc3ccc(CO)nc3)OC(C)(C(F)(F)F)C2C)cccc1C(F)(F)F` (single isomer, unassigned) [Compound 82], the IC50 was under 10 nM. For `COc1c(C2C(C(=O)Nc3ccc(CO)nc3)OC(C)(C(F)(F)F)C2C)ccc(C(F)F)c1F` (single isomer, unassigned) [Compound 90], the half-inhibitory concentration (IC50) was at least 1000 nM.

`COc1c(C2C(C(=O)Nc3ccc(CO)nc3)OC(C)(C(F)(F)F)C2C)ccc(C(F)F)c1F` (single isomer, unassigned) [Compound 91]: the IC50 was 10 to 100 nM. The compound `COc1nc(C(F)F)ccc1[C@H]1[C@H](C(=O)Nc2ccc(CO)nc2)O[C@@](C)(C(F)(F)F)[C@H]1C` (stereo in doubt) [Compound 88, rel-(2R,3S,4S,5R)-3-(6-(difluoromethyl)-2-methoxypyridin-3-yl)-N-(6-(hydroxymethyl)pyridin-3-yl)-4,5-dimethyl-5-(trifluoromethyl)tetrahydrofuran-2-carboxamide] yielded an IC50 of 100 to 1000 nM. Take `COc1nc(C(F)F)ccc1[C@@H]1[C@@H](C(=O)Nc2ccc(CO)nc2)O[C@](C)(C(F)(F)F)[C@@H]1C` (stereo in doubt) [Compound 89, rel-(2S,3R,4R,5S)-3-(6-(difluoromethyl)-2-methoxypyridin-3-yl)-N-(6-(hydroxymethyl)pyridin-3-yl)-4,5-dimethyl-5-(trifluoromethyl)tetrahydrofuran-2-carboxamide]: the IC50 was at least 1000 nM. To `CCOc1c([C@H]2[C@H](C(=O)Nc3ccc([C@H](O)CO)nc3)O[C@@](C)(C(F)(F)F)[C@H]2C)ccc(F)c1F` [Compound 6, (2R,3S,4S,5R)-N-(6-((S)-1,2-dihydroxyethyl)pyridin-3-yl)-3-(2-ethoxy-3,4-difluorophenyl)-4,5-dimethyl-5-(trifluoromethyl)tetrahydrofuran-2-carboxamide] belongs under 10 nM; to `CCOc1c([C@H]2[C@H](C(=O)Nc3ccc([C@@H](O)CO)nc3)O[C@@](C)(C(F)(F)F)[C@H]2C)ccc(F)c1F` [Compound 7, (2R,3S,4S,5R)-N-(6-((R)-1,2-dihydroxyethyl)pyridin-3-yl)-3-(2-ethoxy-3,4-difluorophenyl)-4,5-dimethyl-5-(trifluoromethyl)tetrahydrofuran-2-carboxamide], under 10 nM.

`[2H]C([2H])([2H])Oc1c([C@H]2[C@H](C(=O)Nc3ccc([C@@H](O)CO)nc3)O[C@@](C)(C(F)(F)F)[C@H]2C)ccc(F)c1F` [Compound 8, (2R,3S,4S,5R)-3-(3,4-difluoro-2-(methoxy-d3)phenyl)-N-(6-((R)-1,2-dihydroxyethyl)pyridin-3-yl)-4,5-dimethyl-5-(trifluoromethyl)tetrahydrofuran-2-carboxamide] returned an IC50 of under 10 nM. Compound `CC(C)Oc1c(C2C(C(=O)Nc3cnc(C(O)CO)nc3)OC(C)(C(F)(F)F)C2C)ccc(F)c1F` (stereo not drawn) [Compound 9] displayed an IC50 of 10 to 100 nM. On to `COc1c([C@H]2[C@H](C(=O)Nc3ccc(CO)nc3)O[C@@](C)(C(F)(F)F)[C@H]2C)ccc(F)c1F` [Compound 14, (2R,3S,4S,5R)-3-(3,4-difluoro-2-methoxyphenyl)-N-(6-(hydroxymethyl)pyridin-3-yl)-4,5-dimethyl-5-(trifluoromethyl)tetrahydrofuran-2-carboxamide], for which the IC50 is under 10 nM.

On to `COc1c([C@H]2[C@H](C(=O)Nc3cnc(CO)nc3)O[C@@](C)(C(F)(F)F)[C@H]2C)ccc(F)c1F` [Compound 15, (2R,3S,4S,5R)-3-(3,4-difluoro-2-methoxyphenyl)-N-(2-(hydroxymethyl)pyrimidin-5-yl)-4,5-dimethyl-5-(trifluoromethyl)tetrahydrofuran-2-carboxamide], for which the concentration for half-maximal inhibition (IC50) was under 10 nM.

`COc1c([C@H]2[C@H](C(=O)Nc3ccc(CO)nc3)O[C@@](C)(C(F)(F)F)[C@H]2C)ccc(OC(F)F)c1F` [Compound 18, (2R,3S,4S,5R)-3-(4-(difluoromethoxy)-3-fluoro-2-methoxyphenyl)-N-(6-(hydroxymethyl)pyridin-3-yl)-4,5-dimethyl-5-(trifluoromethyl)tetrahydrofuran-2-carboxamide] came in with an IC50 of 10 to 100 nM.

For the compound `COc1c([C@H]2[C@H](C(=O)Nc3cnc(CO)nc3)O[C@@](C)(C(F)(F)F)[C@H]2C)ccc(OC(F)F)c1F` [Compound 19, (2R,3S,4S,5R)-3-(4-(difluoromethoxy)-3-fluoro-2-methoxyphenyl)-N-(2-(hydroxymethyl)pyrimidin-5-yl)-4,5-dimethyl-5-(trifluoromethyl)tetrahydrofuran-2-carboxamide], the half-maximal inhibitory concentration (IC50) is 10 to 100 nM. In turn, `C[C@H]1[C@@H](c2ccc(F)c(F)c2O)[C@H](C(=O)Nc2ccc([C@@H](O)CO)nc2)O[C@@]1(C)C(F)(F)F` [Compound 36, (2R,3S,4S,5R)-3-(3,4-difluoro-2-hydroxyphenyl)-N-(6-((R)-1,2-dihydroxyethyl)pyridin-3-yl)-4,5-dimethyl-5-(trifluoromethyl)tetrahydrofuran-2-carboxamide] showed a 50% inhibitory concentration (IC50) of 100 to 1000 nM. The same measure for `C[C@H]1[C@@H](c2ccc(F)c(F)c2OCCF)[C@H](C(=O)Nc2ccc([C@@H](O)CO)nc2)O[C@@]1(C)C(F)(F)F` [Compound 37, (2R,3S,4S,5R)-3-(3,4-difluoro-2-(2-fluoroethoxy)phenyl)-N-(6-((R)-1,2-dihydroxyethyl)pyridin-3-yl)-4,5-dimethyl-5-(trifluoromethyl)tetrahydrofuran-2-carboxamide]: under 10 nM; for `C[C@H]1[C@@H](c2ccc(F)c(F)c2OCC(F)F)[C@H](C(=O)Nc2ccc([C@@H](O)CO)nc2)O[C@@]1(C)C(F)(F)F` [Compound 38, (2R,3S,4S,5R)-3-(2-(2,2-difluoroethoxy)-3,4-difluorophenyl)-N-(6-((R)-1,2-dihydroxyethyl)pyridin-3-yl)-4,5-dimethyl-5-(trifluoromethyl)tetrahydrofuran-2-carboxamide]: under 10 nM. Compound `C[C@H]1[C@@H](c2ccc(F)c(F)c2O)[C@H](C(=O)Nc2cnc(CO)nc2)O[C@@]1(C)C(F)(F)F` [Compound 39, (2R,3S,4S,5R)-3-(3,4-difluoro-2-hydroxyphenyl)-N-(2-(hydroxymethyl)pyrimidin-5-yl)-4,5-dimethyl-5-(trifluoromethyl)tetrahydrofuran-2-carboxamide] yielded a 50% inhibitory concentration (IC50) of at least 1000 nM. To `COc1c([C@H]2[C@H](C(=O)Nc3ccc([C@@H](O)CO)[n+]([O-])c3)O[C@@](C)(C(F)(F)F)[C@H]2C)ccc(F)c1F` [Compound 60, 5-((2R,3S,4S,5R)-3-(3,4-difluoro-2-methoxyphenyl)-4,5-dimethyl-5-(trifluoromethyl)tetrahydrofuran-2-carboxamido)-2-((R)-1,2-dihydroxyethyl)pyridine 1-oxide] belongs under 10 nM. To `COc1c([C@H]2[C@H](C(=O)Nc3cnc(CO)c(F)c3)O[C@@](C)(C(F)(F)F)[C@H]2C)ccc(F)c1F` [Compound 83, (2R,3S,4S,5R)-3-(3,4-difluoro-2-methoxyphenyl)-N-(5-fluoro-6-(hydroxymethyl)pyridin-3-yl)-4,5-dimethyl-5-(trifluoromethyl)tetrahydrofuran-2-carboxamide] belongs under 10 nM.

With `COc1c([C@H]2[C@H](C(=O)Nc3ccc([C@@H](C)O)nc3)O[C@@](C)(C(F)(F)F)[C@H]2C)ccc(F)c1F` [Compound 84, (2R,3S,4S,5R)-3-(3,4-difluoro-2-methoxyphenyl)-N-(6-((R)-1-hydroxyethyl)pyridin-3-yl)-4,5-dimethyl-5-(trifluoromethyl)tetrahydrofuran-2-carboxamide], the IC50 was under 10 nM. To `COc1c([C@H]2[C@H](C(=O)Nc3ccc([C@H](C)O)nc3)O[C@@](C)(C(F)(F)F)[C@H]2C)ccc(F)c1F` [Compound 85, (2R,3S,4S,5R)-3-(3,4-difluoro-2-methoxyphenyl)-N-(6-((S)-1-hydroxyethyl)pyridin-3-yl)-4,5-dimethyl-5-(trifluoromethyl)tetrahydrofuran-2-carboxamide] belongs 10 to 100 nM; to `COc1c([C@H]2[C@H](C(=O)Nc3cnc(CO)cn3)O[C@@](C)(C(F)(F)F)[C@H]2C)ccc(F)c1F` [Compound 86, (2R,3S,4S,5R)-3-(3,4-difluoro-2-methoxyphenyl)-N-(5-(hydroxymethyl)pyrazin-2-yl)-4,5-dimethyl-5-(trifluoromethyl)tetrahydrofuran-2-carboxamide], 10 to 100 nM; to `COc1c([C@H]2[C@H](C(=O)Nc3cnc(CO)c(CO)c3)O[C@@](C)(C(F)(F)F)[C@H]2C)ccc(F)c1F` [Compound 87, (2R,3S,4S,5R)-N-(5,6-bis(hydroxymethyl)pyridin-3-yl)-3-(3,4-difluoro-2-methoxyphenyl)-4,5-dimethyl-5-(trifluoromethyl)tetrahydrofuran-2-carboxamide], 100 to 1000 nM.
